Test system: HeLa cells
Test: Potentiation Factor (PF50): MMS growth inhibition, SRB assay
Type: cell-based
Conditions: MMS 0-10 μg/ml, ratio IC50 control / IC50 + inhibitor; for PF50 (200 nM): PARP inhibitor at 200 nM; for PF50 (30 nM): PARP inhibitor at 30 nM
Experimental: The Potentiation Factor (PF50) for compounds is calculated as a ratio of the IC50 of control cell growth divided by the IC50 of cell growth+PARP inhibitor. Growth inhibition curves for both control and compound treated cells are in the presence of the alkylating agent methyl methanesulfonate (MMS). The test compounds were used at a fixed concentration of 0.2 micromolar. The concentrations of MMS were over a range from 0 to 10 μg/ml.
2,000 HeLa cells were seeded into each well of a flat-bottomed 96-well microtiter plate in a volume of 100 μl and incubated for 6 hours at 37° C. Cells were either replaced with media alone or with media containing PARP inhibitor at a final concentration of 30 nM or 200 nM. […] Cells treated with PARP inhibitor alone were used to assess the growth inhibition by the PARP inhibitor.
Cells were left for a further 16 hours before replacing the media and allowing the cells to grow for a further 72 hours at 37° C. The media was then removed and the cells fixed with 100 μl of ice cold 10% (w/v) trichloroacetic acid. The plates were incubated at 4° C. for 20 minutes and then washed four times with water. Each well of cells was then stained with 100 μl of 0.4% (w/v) SRB in 1% acetic acid for 20 minutes before washing four times with 1% acetic acid. Plates were then dried for 2 hours at room temperature. The dye from the stained cells was solubilized by the addition of 100 μl of 10 mM Tris Base into each well.

| Structure (SMILES) | PF50 (200 nM) | PF50 (30 nM) |
| --- | --- | --- |
| O=C(c1cc(Cc2n[nH]c(=O)c3ccccc23)ccc1F)N1CCC(O)CC1 [Compound 2a, 4-(4-fluoro-3-(4-hydroxypiperidine-1-carbonyl)benzyl)phthalazin-1(2H)-one] | 3 | – |
| O=C(c1cc(Cc2n[nH]c(=O)c3ccccc23)ccc1F)N1CCC(Oc2ccc(F)cc2)CC1 [Compound 2c] | 7 | 1.9 |
| O=C(c1cc(Cc2n[nH]c(=O)c3ccccc23)ccc1F)N1CCC(OCC2CC2)CC1 [Compound 2g] | – | 4.3 |
| CC(C)COC1CCN(C(=O)c2cc(Cc3n[nH]c(=O)c4ccccc34)ccc2F)CC1 [Compound 2h] | – | 2.9 |
| O=C(c1cc(Cc2n[nH]c(=O)c3ccccc23)ccc1F)N1CCC(Oc2ccccn2)CC1 [Compound 2i] | – | 16.7 |
| O=C(c1cc(Cc2n[nH]c(=O)c3ccccc23)ccc1F)N1CCC(Oc2ccncc2)CC1 [Compound 2j] | – | 3.0 |
| O=C(c1cccc(Cc2n[nH]c(=O)c3c(F)ccc(F)c23)c1)N1CCC(OCC2CC2)CC1 [Compound 4a] | – | 1.2 |
| O=C(c1cccc(Cc2n[nH]c(=O)c3c(F)ccc(F)c23)c1)N1CCC(Oc2ccccn2)CC1 [Compound 4b] | – | 2.2 |
| CC(C)COC1CCN(C(=O)c2cccc(Cc3n[nH]c(=O)c4c(F)ccc(F)c34)c2)CC1 [Compound 4c] | – | 1.2 |
| O=C(c1cc(Cc2n[nH]c(=O)c3ccccc23)ccn1)N1CCC(Oc2ccc(Cl)cc2)CC1 [Compound 6a] | 4.2 | 1.7 |
| O=C(c1cc(Cc2n[nH]c(=O)c3ccccc23)ccn1)N1CCC(Oc2ccc(F)cc2)CC1 [Compound 6b] | 3.5 | 1.5 |
| COC1CCN(C(=O)c2cc(Cc3n[nH]c(=O)c4ccccc34)ccn2)CC1 [Compound 6c] | 1.5 | 1.2 |
| O=C(c1cc(Cc2n[nH]c(=O)c3ccccc23)ccn1)N1CCC(Oc2ccccc2)CC1 [Compound 6d] | 3.5 | 1.4 |
| O=C(c1cc(Cc2n[nH]c(=O)c3ccccc23)ccn1)N1CCC(Oc2ccncc2)CC1 [Compound 6e] | 1.9 | 1.5 |
| O=C(c1cc(Cc2n[nH]c(=O)c3ccccc23)ccn1)N1CCC(Oc2ccccn2)CC1 [Compound 6f] | 5.0 | 1.8 |
| COCCOC1CCN(C(=O)c2cc(Cc3n[nH]c(=O)c4ccccc34)ccc2F)CC1 [Compound 7, 4-(4-fluoro-3-(4-(2-methoxyethoxy)piperidine-1-carbonyl)benzyl)phthalazin-1(2H)-one] | – | 4.0 |
| COc1cccc(OC2CCN(C(=O)c3cc(Cc4n[nH]c(=O)c5ccccc45)ccc3F)CC2)c1 [Compound 8a, 4-[[4-fluoro-3-[4-(3-methoxyphenoxy)piperidine-1-carbonyl]phenyl]methyl]-2H-phthalazin-1-one] | – | 1.6 |
| COc1ccc(OC2CCN(C(=O)c3cc(Cc4n[nH]c(=O)c5ccccc45)ccc3F)CC2)cc1 [Compound 8b, 4-[[4-fluoro-3-[4-(4-methoxyphenoxy)piperidine-1-carbonyl]phenyl]methyl]-2H-phthalazin-1-one] | – | 23.6 |
| CCCOC1CCN(C(=O)c2cc(Cc3n[nH]c(=O)c4ccccc34)ccc2F)CC1 [Compound 8c, 4-[[4-fluoro-3-(4-propoxypiperidine-1-carbonyl)phenyl]methyl]-2H-phthalazin-1-one] | – | 12.2 |
| COc1ccccc1OC1CCN(C(=O)c2cc(Cc3n[nH]c(=O)c4ccccc34)ccc2F)CC1 [Compound 8d, 4-[[4-fluoro-3-[4-(2-methoxyphenoxy)piperidine-1-carbonyl]phenyl]methyl]-2H-phthalazin-1-one] | – | 1.2 |
| O=C(c1cc(Cc2n[nH]c(=O)c3ccccc23)ccc1F)N1CCC(OCc2ccccc2)CC1 [Compound 8e, 4-[[4-fluoro-3-(4-phenylmethoxypiperidine-1-carbonyl)phenyl]methyl]-2H-phthalazin-1-one] | – | 1.4 |
| N#CCc1ccc(OC2CCN(C(=O)c3cc(Cc4n[nH]c(=O)c5ccccc45)ccc3F)CC2)cc1 [Compound 8f, 2-[4-[1-[2-fluoro-5-[(4-oxo-3H-phthalazin-1-yl)methyl]benzoyl]piperidin-4-yl]oxyphenyl]acetonitrile] | – | 4.1 |
| O=C(c1cc(Cc2n[nH]c(=O)c3ccccc23)ccc1F)N1CCC2(CC1)OCc1ccccc12 [Compound 9, 4-(4-fluoro-3-(3H-spiro[isobenzofuran-1,4′-piperidine]-1′-ylcarbonyl)benzyl)phthalazin-1(2H)-one] | – | 1.3 |

| Structure (SMILES) | PF50 (200 nM) | PF50 (30 nM) |
| --- | --- | --- |
| CC(C)OC1CCN(C(=O)c2cc(Cc3n[nH]c(=O)c4ccccc34)ccc2F)CC1 [Compound 11, 4-(4-fluoro-3-(4-isopropoxypiperidine-1-carbonyl)benzyl)phthalazin-1(2H)-one] | – | 33.6 |
| CC(C)OC1CCN(C(=O)c2cccc(Cc3n[nH]c(=O)c4ccccc34)c2)CC1 [Compound 12] | – | 2.1 |
| O=C(c1cc(Cc2n[nH]c(=O)c3ccccc23)ccc1F)N1CCC(OC2CCC2)CC1 [Compound 15, 4-(3-(4-cyclobutoxypiperidine-1-carbonyl)-4-fluorobenzyl)phthalazin-1(2H)-one] | – | 4.4 |
| C=CCOC1CCN(C(=O)c2cc(Cc3n[nH]c(=O)c4ccccc34)ccc2F)CC1 [Compound 16] | – | 3.4 |
| O=C(c1cc(Cc2n[nH]c(=O)c3ccccc23)ccc1F)N1CCC(OC(F)F)CC1 [Compound 19, 4-(3-(4-(difluoromethoxy)piperidine-1-carbonyl)-4-fluorobenzyl)phthalazin-1(2H)-one] | – | 2.5 |
| O=C(c1cc(Cc2n[nH]c(=O)c3ccccc23)ccc1F)N1CCC(OCC2CCCO2)CC1 (stereo not drawn) [Compound 20, 4-[[4-fluoro-3-[4-(oxolan-2-ylmethoxy)piperidine-1-carbonyl]phenyl]methyl]-2H-phthalazin-1-one] | – | 2.0 |
| COC1(C)CCN(C(=O)c2cc(Cc3n[nH]c(=O)c4ccccc34)ccc2F)CC1 [Compound 24, 4-[[4-fluoro-3-(4-methoxy-4-methylpiperidine-1-carbonyl)phenyl]methyl]-2H-phthalazin-1-one] | – | 1.5 |
| CC(C)OC1CCN(C(=O)c2cc(Cc3n[nH]c(=O)c4ccccc34)ccn2)CC1 [Compound 25, 4-[[2-(4-propan-2-yloxypiperidine-1-carbonyl)pyridin-4-yl]methyl]-2H-phthalazin-1-one] | – | 2.1 |
| O=C(c1cc(Cc2n[nH]c(=O)c3ccccc23)ccc1F)N1CCC(Oc2ccncn2)CC1 [Compound 26a, 4-(4-fluoro-3-(4-(pyrimidin-4-yloxy)piperidine-1-carbonyl)benzyl)phthalazin-1(2H)-one] | – | 3.7 |
| Cc1ccc(OC2CCN(C(=O)c3cc(Cc4n[nH]c(=O)c5ccccc45)ccc3F)CC2)nn1 [Compound 26b] | – | 1.5 |
| N#Cc1ccc(OC2CCN(C(=O)c3cc(Cc4n[nH]c(=O)c5ccccc45)ccc3F)CC2)nc1 [Compound 26c] | – | 32.4 |
| O=C(c1cc(Cc2n[nH]c(=O)c3ccccc23)ccc1F)N1CCC(Oc2cnccn2)CC1 [Compound 26d] | – | 4.0 |
| O=C(c1cc(Cc2n[nH]c(=O)c3ccccc23)ccc1F)N1CCC(Oc2ncccn2)CC1 [Compound 26e] | – | 2.7 |
| N#Cc1ccnc(OC2CCN(C(=O)c3cc(Cc4n[nH]c(=O)c5ccccc45)ccc3F)CC2)c1 [Compound 26f] | – | 4.4 |
| NC(=O)c1ccnc(OC2CCN(C(=O)c3cc(Cc4n[nH]c(=O)c5ccccc45)ccc3F)CC2)c1 [Compound 26g] | – | 1.6 |
| Cc1nccnc1OC1CCN(C(=O)c2cc(Cc3n[nH]c(=O)c4ccccc34)ccc2F)CC1 [Compound 26h] | – | 12.7 |
| Cc1cnc(OC2CCN(C(=O)c3cc(Cc4n[nH]c(=O)c5ccccc45)ccc3F)CC2)c(C)n1 [Compound 26i] | – | 8.0 |
| Cc1cnc(C)c(OC2CCN(C(=O)c3cc(Cc4n[nH]c(=O)c5ccccc45)ccc3F)CC2)n1 [Compound 26j] | – | 1.2 |
| COc1ccnc(OC2CCN(C(=O)c3cc(Cc4n[nH]c(=O)c5ccccc45)ccc3F)CC2)c1 [Compound 26k] | – | 26.8 |
| N#Cc1nccnc1OC1CCN(C(=O)c2cc(Cc3n[nH]c(=O)c4ccccc34)ccc2F)CC1 [Compound 26l] | – | 1.2 |
| O=C(c1cc(Cc2n[nH]c(=O)c3ccccc23)ccc1F)N1CCC(Oc2ccc(Cl)nc2)CC1 [Compound 26m] | – | 2.4 |
| O=C(c1cc(Cc2n[nH]c(=O)c3ccccc23)ccc1F)N1CCC(OC(CF)CF)CC1 [Compound 29, 4-(3-(4-(1,3-difluoropropan-2-yloxy)piperidine-1-carbonyl)-4-fluorobenzyl)phthalazin-1(2H)-one] | – | 25.9 |
| O=C(c1cc(Cc2n[nH]c(=O)c3ccccc23)ccc1F)N1CCC(OC2CCCC2)CC1 [Compound 36, 4-(3-(4-(cyclopentyloxy)piperidine-1-carbonyl)-4-fluorobenzyl)phthalazin-1(2H)-one] | 24.3 | 14.5 |
